Reference: paper PMC8026785, “The pharmacokinetics of [^18F]UCB-H revisited in the healthy non-human primate brain” (EJNMMI Research, 2021)
Several values for one entry are separate records, joined by “and”; a condition that tells them apart may be missing. Identical values can stand only once.

Target: T1, SV2A (Macaca fascicularis, UniProt Q4R4X3)
T1 construct: The current study evaluates [^18F]UCB-H pharmacokinetics in healthy NHPs; from tissue; host or cells: brain of living healthy cynomolgus monkeys (in vivo PET)
T1 sequence (Q4R4X3 whole entry): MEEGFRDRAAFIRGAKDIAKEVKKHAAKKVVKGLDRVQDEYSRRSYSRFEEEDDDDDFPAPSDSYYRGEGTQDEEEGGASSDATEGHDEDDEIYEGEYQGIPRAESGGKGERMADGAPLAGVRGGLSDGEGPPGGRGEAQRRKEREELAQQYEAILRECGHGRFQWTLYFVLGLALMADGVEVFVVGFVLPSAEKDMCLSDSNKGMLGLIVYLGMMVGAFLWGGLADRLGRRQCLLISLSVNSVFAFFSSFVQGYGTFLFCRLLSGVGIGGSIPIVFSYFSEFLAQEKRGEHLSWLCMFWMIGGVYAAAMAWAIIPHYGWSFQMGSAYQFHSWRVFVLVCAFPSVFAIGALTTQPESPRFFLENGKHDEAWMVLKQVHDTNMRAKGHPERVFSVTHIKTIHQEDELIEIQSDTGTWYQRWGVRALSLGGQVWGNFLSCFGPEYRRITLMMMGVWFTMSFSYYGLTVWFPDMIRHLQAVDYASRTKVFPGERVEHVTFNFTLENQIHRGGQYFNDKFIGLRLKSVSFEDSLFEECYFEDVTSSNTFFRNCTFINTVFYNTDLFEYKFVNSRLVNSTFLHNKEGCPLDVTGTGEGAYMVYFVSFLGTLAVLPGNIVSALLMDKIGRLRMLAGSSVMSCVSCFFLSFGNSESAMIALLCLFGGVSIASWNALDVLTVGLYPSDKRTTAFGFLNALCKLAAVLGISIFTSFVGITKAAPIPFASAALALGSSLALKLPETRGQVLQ
Assay: Brain PET kinetic modelling (1TCM, 2TCM, 2TCM-c, Logan), test-retest
Format: in vivo, cynomolgus monkeys (Macaca fascicularis)
Description: All four non-human primates (NHP) underwent a 2-h (2 h) test and retest PET scan; two NHP underwent an additional 4-h (4 h) retest PET scan. Three NHP underwent one 4-h (4 h) displacement PET scan. Arterial blood sampling was performed during test and retest scans with PET imaging spaced by at least 3 weeks between each scan. To this end, the femoral artery opposite to the saphenous vein used for radioligand injection was cannulated. For the 2-h (2 h) scans, we collected in total 28 blood samples of 1 mL: 16 samples during the first 5 min followed by […] every 5 min and […] every 10 min. For the 4 h scans, we collected an additional 6 samples every 20 min during the last two hours (34 samples in total). Larger samples (2 – 3 mL) were collected at 5, 15, 30, 60, 90, 120 min (2 h) and at 180, 240 min (4 h) for metabolite analysis. Displacement of [^18F]UCB-H was done by intravenous (IV) administration 90 min after [^18F]UCB-H injection of a bolus of 30 mg/kg LEV, or of 80 µg/kg (≈250 nmol/kg) or 5 mg/kg (≈15 µmol/kg) of cold [^19F]-UCB-H. Full experimental design of all NHP is outlined in Additional file 1: Table 1.
PET imaging was performed on the microPET FOCUS220 (Siemens) under standard anesthesia and monitoring procedures. Data acquisition started with the IV bolus injection of [^18F]UCB-H (32.9 ± 1.0 MBq/kg, 0.35 ± 0.07 µg/kg). Dynamic PET images were reconstructed using standard OSEM-2D algorithms while correcting for radioactive decay, scatter, attenuation and detectors inhomogeneity, which were measured prior to PET scanning using respectively ^57Co and ^68Ge external sources.
PET image analysis was performed using PMOD software version 3.8 (PMOD Technologies Ltd., Zurich, Suisse). After individual co-registration of PET-MR images, a cynomolgus atlas published by Ballanger and coworkers was normalized to PET images to extract time activity curves in different brain regions. Volumes of interest (VOI) were cerebral white matter (16.7 cm^3), striatum (0.24 cm^3), thalamus (0.89 cm^3), cerebellum (3.83 cm^3), frontal—(2.50 cm^3), parietal—(5.35 cm^3), and temporal (8.22 cm^3) cortex, and whole brain (72.2 cm^3) as a composite region of all regions in the atlas. [^18F]UCB-H pharmacokinetics were evaluated by analyzing the time activity curves of the test- and retest scans using 1- and 2-tissue compartment models (unconstrained and constrained with global K1/k2 coupled fit across all regions, further referred to as 2TCM and 2TCM-c), and Logan graphical analysis with a fixed t* at 60 min [33] using the arterial plasma input function corrected for radio-metabolites to derive the volume of distribution in each region. Percentage standard error (%SE) was estimated from the theoretical parameter covariance matrix. Only reliable estimates (%SE less than 25%) were included in the current analyses. For the three drug studies, percent displacement of the total activity in the whole brain was estimated relative to an average baseline constructed from the two 4 h baseline studies. Briefly, Standardized Uptake Value (SUV) time activity curves (TACs) were calculated for the two baseline and the three displacement studies. Then, each curve was normalized to the SUV at t = 90 min, corresponding to the timeframe immediately before the administration of the drugs in the displacement studies. Baseline curves were averaged and the percent displacement of total activity was calculated as (baseline-displacement)/baseline at a given time post drug administration (see “Results”).
Statistical analysis was performed using R software (version 3.3.1.). Plasma, intact parent fraction and time activity curves were statistically compared between subjects using a one-factor variance analysis. Absolute Test–Retest variability (aTRV) of PET quantification parameters was calculated as ABS(test—retest) / AVERAGE(test, retest). […]

[1] = Parietal Cortex, Retest, individual NHP
[2] = Parietal Cortex, Test, individual NHP
[3] = Striatum, Retest, individual NHP

Structure (SMILES): O=C1C[C@H](c2cc(F)c(F)c(F)c2)CN1Cc1ccncc1[18F] [[^18F]UCB-H]
- VT (2TCM) (Frontal cortex, Retest, mean): 13.1 mL/cm^3
- VT (2TCM-c) (Frontal cortex, Retest, mean): 14.7 mL/cm^3
- VT (Logan (t* = 60)) (Frontal cortex, Retest, mean): 14.8 mL/cm^3
- k3/k4 (BPND) (2TCM-c) (Frontal cortex, Retest, mean): 1.32
- VT (1TCM) (Frontal cortex, Test, mean): 13.8 mL/cm^3
- VT (2TCM) (Frontal cortex, Test, mean): 16.3 mL/cm^3
- VT (2TCM-c) (Frontal cortex, Test, mean): 14.8 mL/cm^3
- VT (Logan (t* = 60)) (Frontal cortex, Test, mean): 15.0 mL/cm^3
- k3/k4 (BPND) (2TCM-c) (Frontal cortex, Test, mean): 1.25
- ICC of VT, overall (Logan): ~ 0.6
- aTRV of VT, overall (Logan): ~ 11% and ~ 12%
- aTRV of VT (MA1, data not shown): ~ 11%
- K1 (2TCM) [1]: 0.42 ml/cm^3 /min and 0.32 ml/cm^3 /min and 0.38 ml/cm^3 /min and 0.33 ml/cm^3 /min
- K1 (2TCM-c) [1]: 0.44 ml/cm^3 /min and 0.33 ml/cm^3 /min and 0.38 ml/cm^3 /min and 0.34 ml/cm^3 /min
- K1/k2 (2TCM) [1]: 13.02 ml/cm^3 and 14.99 ml/cm^3
- K1/k2 (2TCM-c) [1]: 4.64 ml/cm^3 and 9.07 ml/cm^3 and 10.70 ml/cm^3 and 7.25 ml/cm^3
- VT (1TCM) [1]: 13.99 ml/cm^3 and 16.57 ml/cm^3 and 15.57 ml/cm^3 and 13.26 ml/cm^3
- VT (2TCM) [1]: 13.98 ml/cm^3 and 13.26 ml/cm^3
- VT (2TCM-c) [1]: 14.02 ml/cm^3 and 18.28 ml/cm^3 and 18.66 ml/cm^3 and 13.26 ml/cm^3
- VT (Logan) [1]: 13.75 ml/cm3 and 19.72 ml/cm3 and 15.91 ml/cm3 and 13.60 ml/cm3
- k3/k4 (2TCM-c) [1]: 2.02 and 1.04 and 0.78 and 0.83
- K1 (2TCM) [2]: 0.22 ml/cm^3 /min and 0.40 ml/cm^3 /min and 0.41 ml/cm^3 /min and 0.18 ml/cm^3 /min
- K1 (2TCM-c) [2]: 0.23 ml/cm^3 /min and 0.41 ml/cm^3 /min and 0.42 ml/cm^3 /min and 0.18 ml/cm^3 /min
- K1/k2 (2TCM) [2]: 7.68 ml/cm^3 and 12.37 ml/cm^3 and 12.79 ml/cm^3 and 13.88 ml/cm^3
- K1/k2 (2TCM-c) [2]: 4.35 ml/cm^3 and 8.22 ml/cm^3 and 10.99 ml/cm^3 and 7.86 ml/cm^3
- VT (1TCM) [2]: 10.65 ml/cm^3 and 17.46 ml/cm^3 and 14.10 ml/cm^3 and 15.09 ml/cm^3
- VT (2TCM) [2]: 12.22 ml/cm^3 and 18.71 ml/cm^3
- VT (2TCM-c) [2]: 11.12 ml/cm^3 and 17.78 ml/cm^3 and 15.03 ml/cm^3 and 17.47 ml/cm^3
- VT (Logan) [2]: 11.83 ml/cm3 and 18.19 ml/cm3 and 15.28 ml/cm3 and 16.49 ml/cm3
- k3/k4 (2TCM) [2]: 0.59
- k3/k4 (2TCM-c) [2]: 1.56 and 1.38 and 0.37 and 1.00
- ICC of 2TCM-c VT (Parietal cortex): 0.38
- ICC of Logan (t* = 60) VT (Parietal cortex): 0.75
- aTRV of 2TCM-c VT (Parietal cortex): 19%
- aTRV of Logan (t* = 60) VT (Parietal cortex): 12%
- VT (1TCM) (Parietal cortex, Retest, mean): 14.8 mL/cm^3
- VT (2TCM) (Parietal cortex, Retest, mean): 13.6 mL/cm^3
- VT (2TCM-c) (Parietal cortex, Retest, mean): 16.1 mL/cm^3
- VT (Logan (t* = 60)) (Parietal cortex, Retest, mean): 15.7 mL/cm^3
- k3/k4 (BPND) (2TCM-c) (Parietal cortex, Retest, mean): 1.17
- VT (1TCM) (Parietal cortex, Test, mean): 14.3 mL/cm^3
- VT (2TCM) (Parietal cortex, Test, mean): 15.5 mL/cm^3
- VT (2TCM-c) (Parietal cortex, Test, mean): 15.4 mL/cm^3
- VT (Logan (t* = 60)) (Parietal cortex, Test, mean): 15.4 mL/cm^3
- k3/k4 (BPND) (2TCM-c) (Parietal cortex, Test, mean): 1.08
- ICC of Logan (t* = 60) VT (Striatum): 0.67
- aTRV of 2TCM-c VT (Striatum): 12%
- aTRV of Logan (t* = 60) VT (Striatum): 11%
- K1 (2TCM) [3]: 0.41 ml/cm^3 /min and 0.54 ml/cm^3 /min and 0.44 ml/cm^3 /min and 0.46 ml/cm^3 /min
- K1 (2TCM-c) [3]: 0.42 ml/cm^3 /min and 0.58 ml/cm^3 /min and 0.46 ml/cm^3 /min and 0.47 ml/cm^3 /min
- K1/k2 (2TCM) [3]: 11.34 ml/cm^3 and 15.36 ml/cm^3
- K1/k2 (2TCM-c) [3]: 7.25 ml/cm^3 and 4.64 ml/cm^3 and 9.07 ml/cm^3 and 10.70 ml/cm^3
- VT (1TCM) [3]: 13.04 ml/cm^3 and 14.96 ml/cm^3 and 15.52 ml/cm^3 and 15.75 ml/cm^3
- VT (2TCM) [3]: 13.09 ml/cm^3 and 15.01 ml/cm^3
- VT (2TCM-c) [3]: 13.08 ml/cm^3 and 15.06 ml/cm^3 and 17.64 ml/cm^3 and 15.26 ml/cm^3
- VT (Logan) [3]: 13.39 ml/cm3 and 14.93 ml/cm3 and 18.31 ml/cm3 and 16.14 ml/cm3
- k3/k4 (2TCM-c) [3]: 0.80 and 2.25 and 0.97 and 0.45
- VT (1TCM) (Striatum, Retest, mean): 14.8 mL/cm^3
- VT (2TCM) (Striatum, Retest, mean): 14.1 mL/cm^3
- VT (2TCM-c) (Striatum, Retest, mean): 15.3 mL/cm^3
